The source of these data is patent EP0371438B1, “3,5-Di-tertiary-butyl-4-hydroxyphenyl-1,3,4-thiadiazoles, and oxadiazoles and 3,5-di-tertiary-butyl-4-hydroxiphenyl- 1,2,4-thiadiazoles, -oxadiazoles as antiinflammatory agents” (WARNER-LAMBERT COMPANY, priority 1988, dated 1990).

Molecules are shown by their SMILES.

Data set [1] addresses T1, 5-lipoxygenase (Rattus norvegicus, UniProt P12527).
T1 construct: host or cells: RBL-1 (rat basophilic leukemia)
T1 sequence (P12527 1-673): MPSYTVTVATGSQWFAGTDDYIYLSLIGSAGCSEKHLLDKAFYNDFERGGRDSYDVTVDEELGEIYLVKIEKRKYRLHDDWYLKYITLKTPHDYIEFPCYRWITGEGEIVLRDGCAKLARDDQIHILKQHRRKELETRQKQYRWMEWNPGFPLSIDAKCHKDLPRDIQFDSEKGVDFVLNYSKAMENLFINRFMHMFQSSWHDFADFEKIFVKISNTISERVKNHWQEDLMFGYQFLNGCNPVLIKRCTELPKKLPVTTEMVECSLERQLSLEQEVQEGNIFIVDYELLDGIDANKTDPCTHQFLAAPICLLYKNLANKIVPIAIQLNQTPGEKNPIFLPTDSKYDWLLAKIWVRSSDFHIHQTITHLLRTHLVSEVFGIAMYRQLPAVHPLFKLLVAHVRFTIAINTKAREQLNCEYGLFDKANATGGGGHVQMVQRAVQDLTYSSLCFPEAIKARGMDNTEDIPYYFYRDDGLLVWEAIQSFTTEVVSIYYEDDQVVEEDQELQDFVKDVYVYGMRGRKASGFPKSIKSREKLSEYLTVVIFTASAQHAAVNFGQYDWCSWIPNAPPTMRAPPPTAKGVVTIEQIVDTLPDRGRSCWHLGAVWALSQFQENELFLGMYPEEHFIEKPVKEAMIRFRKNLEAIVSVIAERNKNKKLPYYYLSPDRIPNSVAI
Kind of data set: ARBL whole cell 5-lipoxygenase assay (LTB4 formation, RIA). It is filed as cell-based. Conditions: IC50 for LTB4 inhibition; RBL-1 cells, calcium ionophore A23187. The method, then: (§1) ARBL/ARBC Whole Cell 5-Lipoxygenase and Cyclooxygenase Assays
(§2) The rat basophilic leukemia cell line (RBL-1) was obtained from the American Type Culture Collection (Rockville, MD).
(§3) Radioimmunoassay (RIA) kits of LTB₄ and [drawing 16] were obtained from Amersham (Arlington Heights, IL) and Seragen (Boston, MA), respectively.
(§4) RBL-1 cells are grown in suspension culture in Eagle's minimum essential medium supplemented with 12% fetal bovine serum at 37°C in an incubator supplied with air-5% carbon dioxide. Cells are harvested by centrifugation. They are washed with cold phosphate buffered saline pH 7.4 (PBS; NaCl, 7.1 g; Na₂HPO₄, 1.15 g; KH₂PO₄, 0.2 g; and KCl, 0.2 g/l). Cells are finally suspended in PBS containing 1.0 mM calcium at a density of 2x10⁶ cells/ml. Cells are incubated with and without test agent (in DMSO) (1% DMSO is without effect on arachidonic acid metabolism) for ten minutes at room temperature. Calcium ionophore A23187 (5 »M) is added and cells are incubated for seven minutes at 37°C. The reaction is stopped by chilling the tubes on ice for ten minutes. Cells are separated by centrifugation and the supernatant is stored at -20°. Aliquots (100 »l) are analyzed for LTB₄ and [drawing 17] using radioimmunoassay kits as provided by the supplier.
(§5) Table 1 contains biochemical data obtained from this whole cell assay as IC₅₀s which are calculated as the amount of test compound causing 50% inhibition of LTB₄ or [drawing 18] formation.

Data set [2] concerns cyclooxygenase. Kind of data set: ARBC whole cell cyclooxygenase assay (PGF2α formation, RIA). It is filed as cell-based, rat. Conditions: IC50 for PGF2α inhibition; RBL-1 cells, calcium ionophore A23187. The method, then:
as §1, §2, §3, §4, §5

Data set [3] deals with Carrageenan-Induced Rat Foot Paw Edema. In words: Carrageenan-induced rat foot paw edema-2 (CFE-2) assay. It is filed as in vivo. Particulars: 5 h, PO, dosed one hour before carrageenan, edema measured five hours after, compound tested as its sodium salt, read-out: CFE-2 ID₄₀. As for the experimental part: Carrageenan-Induced Rat Foot Paw Edema-2 (CFE-2) Assay: Protocol
Carrageenan solution (1% w/v) is prepared by dissolving 100 mg carrageenan (Marine Colloidal Div., Springfield, NJ) in 10 ml of sterile saline (0.9%) solution (Travenol). The solution is vortexed for 30 to 45 minutes. Animals are dosed with compound one hour before carrageenan challenge. Foot paw edema is induced by injecting 0.10 ml of the 1% carrageenan subcutaneously into the plantar portion of the right hind paw of each rat under light anesthesia. Initial foot paw volume is measured immediately following carrageenan challenge using mercury plethysmography (Buxco Electronics). Edema is measured five hours after carrageenan. The difference between the five-hour and the initial paw volume is expressed as delta edema. The delta edema for each test group of animals is used to calculate the percent inhibition of edema achieved by the compound at the test dose compared with the vehicle control group. The ID₄₀ (the dose at which swelling is inhibited by 40%) is calculated by probit analysis for the dose at which 40 percent inhibition occurs.
Background: The carrageenan paw model is a standard test of acute inflammation.

Data set [4] has as its system Mycobacterium - Induced Rat Footpad Edema. Kind of data set: Mycobacterium-induced rat footpad edema assay (MFE). It is filed as in vivo. Conditions: PO, swelling 72 hours after injection, compound tested as its sodium salt, read-out: MFE ID₄₀. As for the experimental part:
Mycobacterium - Induced Rat Footpad Edema Assay (MFE): Protocol Mycobacterium butyricum (5 mg/ml) is suspended in paraffin oil by sonication for ten minutes in an ice bath. Footpad edema is induced on Day 0 by injecting 0.1 ml of the Mycobacterium mixture into the left hindpaw of lightly anesthetized rats. Swelling in the injected hindpaw is determined by mercury plethysmography 72 hours after injection. Groups of rats are treated with test compounds (suspended in 0.5% hydroxypropyl methylcellulose with 0.2% Tween-80) or vehicle one hour before Mycobacterium injection and on Days 1 and 2. Inhibition of swelling is determined by comparing the change in hindpaw volume in compound-and vehicle-treated rats. An ID₄₀ (the dose at which swelling is inhibited by 40%) is calculated by probit analysis.

For data set [5], the system named is gastric ulcers. Kind of data set: Gastric ulcerogenicity (UD). It is filed as in vivo, Male outbred Wistar rats. Particulars: PO, dose which produces a 50% occurrence of ulcers in rats; result given @ 200; compound tested as its sodium salt. The method, then:
Gastric Ulcerogenicity (UD): Protocol
Male outbred Wistar rats (100-250 gms) are fasted for 24 hours. After fasting, test compounds are administered orally (in 2 ml/kg of 0.5% hydroxypropyl methylcellulose) and the rats are denied access to food and water for six more hours. The rats are then sacrificed with CO₂ so that the stomachs can be removed, opened along the greater curvature, and evaluated for the presence of gastric ulcers. Results are expressed as the percent of rats with gastric ulcers at a given dose or as the UD₅₀ (the dose which causes ulcers in 50% of the rats).

As to `CC(C)(C)c1cc(-c2nnc(S)s2)cc(C(C)(C)C)c1O` [Example 4, 5-[3,5-Bis(1,1-dimethylethyl)-4-hydroxyphenyl]-1,3,4-thiadiazole-2(3H)-thione], the IC50 in data set [1] stood at 5.7 µM; in data set [2], 0.86 µM. Also, the ED40 in data set [3] was 1.9 mg/kg; in data set [4], 3.2 mg/kg. The UD₅₀ result in data set [5] was “N @ 200 (N is 0% of rats having ulcers at 200 mg.)”.

Regarding `CC(C)(C)c1cc(-c2n[nH]c(=O)o2)cc(C(C)(C)C)c1O` [Example 7, 5-[3,5-Bis(1,1-dimethylethyl)-4-hydroxyphenyl]-1,3,4-oxadiazol-2(3H)-one], the values for the IC50 in data set [1] and in data set [2] were 1.4 µM and 2.5 µM, respectively.

For the molecule `CC(C)(C)c1cc(-c2n[nH]c(=S)o2)cc(C(C)(C)C)c1O` [Example 8, 5-[3,5-Bis(1,1-dimethylethyl)-4-hydroxyphenyl]-1,3,4-oxadiazole-2(3H)-thione], the IC50 amounted to 10 µM in data set [1] and 8 µM in data set [2].

For the molecule `CC(C)(C)c1cc(-c2nnc(N)s2)cc(C(C)(C)C)c1O` [Example 10, 4-(5-Amino-1,3,4-thiadiazol-2-yl)-2,6-bis(1,1-dimethylethyl)phenol], the concentration for half-maximal inhibition (IC50) in data set [1] was determined as 1.4 µM; in data set [2] it was 0.13 µM.

As for `CC(C)(C)c1cc(-c2n[nH]c(=O)[nH]2)cc(C(C)(C)C)c1O` [Example 15, 5-[3,5-Bis(1,1-dimethylethyl)-4-hydroxyphenyl]-2,4-dihydro-3H-1,2,4-triazol-3-one], the figures for the IC50 in data set [1] and in data set [2] were 4.5 µM and 5.5 µM, respectively.

As a reminder, the IC50 is the midpoint of a concentration-inhibition curve.
